Laboratory results as given in article PMC7377361, “Pressurized DNA state inside herpes capsids—A novel antiviral target” (PLoS Pathogens, 2020).

How the values were obtained:
[1] = test system: HSV-1; test: In vitro HSV-1 replication (plaque reduction) assay, EC50 and SI50 estimates; assay type: cell-based; set-up: unit not given beside the values; conditions: HFF cells infected with HSV-1
[2] = In vivo toxicity studies in mice (NIH/NIAID preclinical service)
Description: A control group was treated with PBS. […] No signs of distress or significant weight loss were observed during the 4 days of treatment. […]
B. In vivo toxicity studies in mice for bPEI 600 and DAB-Am-4. Experiments were conducted through NIAID/NIH preclinical service agreement No HHSN272201700017I/ […]
Procedures and Endpoints:
1- Baseline weights of all mice
2- IP treatment (twice a day, for 4 days)
3- Daily assessment of weights and condition
4- All animals sacrificed the following morning after the last evening treatment 5- Blood samples collected by IC stick for lab tests (liver, spleen and blood profiles) 6- Internal organs examined for signs of gross tissue toxicity
1. Toxicity evaluation of bPEI 600 Da in mice.
A toxicity screen was performed in uninfected mice treated with 3 doses of bPEI 600 Da, administered for 4 days. In this study, 3 doses of 5, 10 and 25 mg/kg/day were administered twice daily IP for 4 days (n=4/group). A control group was treated with the vehicle (PBS). The mice were examined daily and the weights and general condition were recorded daily. To examine liver, renal and blood function parameters, blood samples were obtained by intracardiac puncture at the end of the study (the following day after last dose) and the mice were sacrificed to examine the internal organs for signs of gross tissue toxicity.
The weights were recorded
In order to confirm the results of the lab results obtained in the toxicity study, a second group of slightly larger mice were treated with the high and the low doses of bPEI 600 Da (25 mg/kg and 5 mg/kg, n=6/group) and the vehicle control (PBS, n=4) for 4 days. Blood samples were collected at the end of the study for liver and renal chemistry profiles. The results are shown in the next […]
REN AL PBS 5 mg/kg 25 mg/kg
LIVER PBS 5 mg/kg 25 mg/kg
Al b:Gl ob R a ti o 1 1 1 […]
obtained from the second group of mice treated with bPEI 600 Da for 4 days.
No signs of distress or significant weight loss were ere observed during the […]
show significant differences with the results obtained in the PBS treated group of control mice.
Statistical analysis: Means were compared by Student’s t test, and mortality was compared by Fisher’s exact test, where applicable.
Ethics regulation of Laboratory animals: Animals were housed in facilities approved by the Association for Assessment and Accreditation of Laboratory Animal Care and Use Committee
2. Toxicity evaluation of DAB-Am-4 in mice.
A toxicity screen in uninfected mice was performed. 2 doses of 5 and 25 mg/kg/day were administered twice daily IP for 4 days (n=6/group). A control group was treated with the vehicle […]
The mice were examined daily and the weights and general condition were recorded. […]

[3] = mice, 5 mg/kg/day twice daily IP, 4 days, Mean, CBC (n=1-2)
[4] = mice, 5 mg/kg/day twice daily IP, 4 days, Mean, LIVER (n=5)
[5] = mice, 5 mg/kg/day twice daily IP, 4 days, Mean, RENAL (n=5)

For `Nc1nc2c(ncn2COCCO)c(=O)[nH]1` [Acyclovir], the SI50 [1] was ~ 10^2.

In the case of `NCCCN(CCCN)CCCN(CCCCN(CCCN(CCCN)CCCN)CCCN(CCCN)CCCN)CCCN(CCCN)CCCN` [DAB-Am-8], the “signs of acute toxicity (lab tests)” value ([2]; mice, 5 and 25 mg/kg/day DAB-Am-4, 5 mg/kg/day DAB-Am-8) is reported as “no conclusive signs of acute toxicity”, the “signs of distress during the observation period” value ([2]; mice, low dose 5 mg/kg/day) is reported as “no significant signs” and the “%Lymphocyte” value [2, 3] is reported as 75%. For the same compound, the Hematocrit [2, 3] was 42, the WBC [2, 3] was 6 and the AST [2, 4] was 437. For the same compound, the “Alb:Glob Ratio” value [2, 4] was 2, the Albumin [2, 4] was 3 and the Amylase [2, 4] was 730. The “Bile Acids” value [2, 4] was 238, the Cholesterol [2, 4] was 61 and the “Creatine Kinase” value [2, 4] was 3149. The GGT [2, 4] was < 1, the Globin [2, 4] was 2 and the “Total Protein” value [2, 4] was 4. For the same compound, the Triglyceride [2, 4] was 114, the BUN [2, 5] was 22 and the “Ca:Phos Ratio” value [2, 5] was 1. The Calcium [2, 5] was 8, the Chloride [2, 5] was 111 and the Glucose [2, 5] was 204. The K [2, 5] was 7, the Na [2, 5] was 147 and the “Na:K Ratio” value [2, 5] was 22. The Phosphorus [2, 5] was 9, the “Uric Acid” value [2, 5] was 2 and the toxicity ([2]; mouse, in vivo, 25 mg/kg/day) was “displayed toxicity”.
